Reference: patent US20210330611A1, “THERAPY FOR NEUROLOGICAL DISEASES/DISORDERS” (priority 2020, published 2021)
Where a name gives a salt, the structure may show the parent alone. Read-outs that look alike come from different tables or passages of the source.

Columns and labels:
[1] = test system: fibrin-induced microglia activation; test: Image-based assay of fibrin-induced microglia activation (HTS and dose response); format: cell-based, rat; conditions: for inhibition at 10 µM: Rattus norvegicus, Microglia, read-out: Fibrin % inhibition
[2] = test system: LPS-induced microglia activation; test: Image-based assay of LPS-induced microglia activation (HTS and dose response); format: cell-based, rat; conditions: for inhibition at 10 µM: Rattus norvegicus, Microglia, read-out: LPS % inhibition
[3] = test system: fibrin- and LPS-induced microglia activation; test: cells; format: cell-based, rat; conditions: for Hit: HTS hit classification
[4] = test system: primary rat microglia; test: Cell toxicity (dead cells, size <150 μm2) in LPS assay; conditions: for IC50: read-out: Cell Toxicity IC50 (uM) [LPS assay]
[5] = test system: primary rat microglia; test: Cell toxicity (dead cells, size <150 μm2) in coated fibrin (cFib) assay; conditions: for IC50: read-out: Cell Toxicity IC50 (uM) [cFib assay];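 as to Fibrin % cell toxicity: share of dead cells sized under 150 µm2 at 10 µM in fibrin-stimulated microglia HTS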
[6] = primary HTS, 10 μM, fibrin-stimulated primary microglia
[7] = primary HTS, 10 μM, LPS-stimulated primary microglia
[8] = primary HTS, 10 μM, LPS assay, dead cells size <150 μm2
[9] = primary HTS, 10 μM, fibrin assay, dead cells size <150 μm2
[10] = primary microglia HTS, fibrin stimulation, increased cell size (>800 μm^2) as marker of activation
[11] = quadrant by fibrin and LPS inhibition in HTS of 1907 compounds
[12] = primary microglia HTS, LPS stimulation, decreased size (<150 μm^2) as marker of toxicity
[13] = primary microglia HTS, fibrin stimulation, decreased size (<150 μm^2) as marker of toxicity
[14] = primary microglia HTS, 10 μM, fibrin-stimulated, cell size >800 μm^2 as marker of activation
[15] = primary microglia HTS, 10 μM, LPS-stimulated, cell size >800 μm^2 as marker of activation
[16] = HTS of 1907 compounds, quadrant by fibrin and LPS inhibition
[17] = primary microglia HTS, 10 μM, LPS assay, cell size <150 μm^2 as marker of toxicity
[18] = primary microglia HTS, 10 μM, fibrin assay, cell size <150 μm^2 as marker of toxicity
[19] = Table 1, dose response 0.001-20 μM, triplicates, primary rat microglia, 48 h, read-out: Fibrin IC50
[20] = dose response, fibrin-induced microglia activation, read-out: Fibrin IC50
[21] = fibrin-induced microglia activation, dose response, read-out: Fibrin IC50 (uM) (Suppl. Table 7)
[22] = LPS-induced microglia activation, dose response, read-out: LPS IC50 (uM) (Suppl. Table 7)
[23] = Table 1, dose response 0.001-20 μM, triplicates, primary rat microglia, 48 h, read-out: LPS IC50
[24] = dose response, LPS-induced microglia activation, read-out: LPS IC50
[25] = primary microglia HTS, LPS stimulation, increased cell size (>800 μm^2) as marker of activation
[26] = hit classification in microglia HTS

With `CCCC(=O)Nc1ncnc2c1ncn2[C@@H]1O[C@@H]2COP(=O)(O)O[C@H]2[C@H]1OC(=O)CCC` [Bucladesine] as the compound, how does the inhibition at 10 µM [1, 6] read?
The inhibition at 10 µM was 10%.

What about the inhibition at 10 µM [2, 7] of the same compound?
Its inhibition at 10 µM is 24%.

And the “Quadrant (FIG. 5b)” value ([3]; primary HTS, 10 μM)?
Its value is “Q4”.

And the “LPS % cell toxicity” value [4, 8]?
Its value is 0%.

What about the “Fibrin % cell toxicity” value [5, 9] of the same compound?
Its value is 1%.

`CCn1cc(C(=O)O)c(=O)c2ccc(C)nc21` [Nalidixic Acid] was tested. Which inhibition at 10 µM [1, 10] did it give?
Its inhibition at 10 µM is -1%.

What about the inhibition at 10 µM ([2]; 48 h, primary microglia HTS, LPS stimulation, increased cell size (>800 μm^2) as marker of activation) of the same compound?
Its inhibition at 10 µM is 13%.

What about the “Quadrant (FIG. 5b)” value [3, 11] of the same compound?
The value was “Q4”.

And the “LPS % cell toxicity” value [4, 12]?
The value was 1%.

What about the “Fibrin % cell toxicity” value [5, 13] of the same compound?
The value was 1%.

How did the inhibition at 10 µM ([1]; primary microglia HTS, fibrin stimulation, activation = cell size >800 μm2) turn out when `C[C@H](O)C(=O)Nc1c(I)c(C(=O)NC(CO)CO)c(I)c(C(=O)NC(CO)CO)c1I` [Iopamidol] was run?
The inhibition at 10 µM was -14%.

And the inhibition at 10 µM ([2]; 48 h, primary microglia HTS, LPS stimulation, activation = cell size >800 μm2)?
Its inhibition at 10 µM is -4%.

And the “Quadrant (FIG. 5b)” value [3, 11]?
Its value is “Q4”.

And the “LPS % cell toxicity” value ([4]; primary microglia HTS, LPS stimulation, toxicity = cell size <150 μm2)?
Its value is 0%.

And the “Fibrin % cell toxicity” value ([5]; primary microglia HTS, fibrin stimulation, toxicity = cell size <150 μm2)?
The value was 1%.

`COc1ccc(C(CN(C)C)C2(O)CCCCC2)cc1` (stereo not shown) [Venlafaxine, Venlafaxine Hydrochloride] was tested. Which Fibrin % inhibition [1, 14] did it give?
Its Fibrin % inhibition is 3%.

And the LPS % inhibition [2, 15]?
Its LPS % inhibition is 20%.

And the “Quadrant (FIG. 5b)” value [3, 16]?
The value was “Q4”.

And the “LPS % cell toxicity” value [4, 17]?
Its value is 0%.

What about the “Fibrin % cell toxicity” value [5, 18] of the same compound?
Its value is 1%.

With `NC(N)=O` [Urea] as the compound, how does the Fibrin % inhibition [1, 14] read?
The Fibrin % inhibition was −14%.

What about the LPS % inhibition [2, 15] of the same compound?
The LPS % inhibition was 20%.

What about the “Quadrant (FIG. 5b)” value [3, 16] of the same compound?
Its value is “Q4”.

What about the “LPS % cell toxicity” value [4, 17] of the same compound?
The value was 0%.

And the “Fibrin % cell toxicity” value [5, 18]?
The value was 1%.

With “Colistimethate sodium [reference compound]” as the compound, how does the IC50 [1, 19] read?
Its IC50 is over 20 µM.

What about the IC50 [1, 20] of the same compound?
The IC50 was over 20 µM.

What about the IC50 [1, 21] of the same compound?
The IC50 was over 20 µM.

What about the Fibrin % inhibition [1, 10] of the same compound?
The Fibrin % inhibition was 72%.

What about the IC50 [2, 22] of the same compound?
The IC50 was over 20 µM.

What about the IC50 [2, 23] of the same compound?
Its IC50 is over 20 µM.

And the IC50 [2, 24]?
The IC50 was over 20 µM.

What about the LPS % inhibition [2, 25] of the same compound?
Its LPS % inhibition is 112%.

And the Hit [3]?
The Hit was “HIT (Hits were defined as molecules that exhibited greater than 50% inhibition of either fibrin or LPS activation)”.

What about the “Quadrant (FIG. 5b)” value [3, 16] of the same compound?
Its value is “Q2”.

And the “Quadrant (FIG. 5b)” value ([3]; Table 1, screen at 10 μM)?
Its value is “Q2”.

And the “Cherry-picked Hit (Suppl. Table 7)” value [3, 26]?
Its value is “HIT (Hits were defined as molecules that exhibited greater than 50% inhibition of either fibrin or LPS activation)”.

What about the “Quadrant (FIG. 5b)” value [3, 11] of the same compound?
Its value is “Q2”.

What about the “LPS % cell toxicity” value [4, 12] of the same compound?
The value was 4%.

What about the IC50 ([4]; LPS assay) of the same compound?
The IC50 was over 20 µM.

What about the “Fibrin % cell toxicity” value [5, 13] of the same compound?
Its value is 1%.

What about the IC50 ([5]; cFib assay) of the same compound?
Its IC50 is over 20 µM.

Which results are given for `[O-][n+]1cccc(CO)c1` [Mepiroxol]?
Fibrin % inhibition [1, 10]: −6%; LPS % inhibition [2, 25]: 11%; Quadrant (FIG. 5b) [3, 11]: Q4; LPS % cell toxicity [4, 12]: 0%; Fibrin % cell toxicity [5, 13]: 1%

For `NS(=O)(=O)c1cc2c(cc1Cl)NC(C(Cl)Cl)NS2(=O)=O` (stereo not shown) [Trichlormethiazide], which inhibition at 10 µM [1, 14] is on record?
The inhibition at 10 µM was 17%.

What about the inhibition at 10 µM [2, 15] of the same compound?
The inhibition at 10 µM was 13%.

And the “Quadrant (FIG. 5b)” value [3, 16]?
The value was “Q4”.

What about the “LPS % cell toxicity” value [4, 17] of the same compound?
The value was 0%.

And the “Fibrin % cell toxicity” value [5, 18]?
The value was 1%.

What does the source list for `CCCCN1CCCCC1C(=O)Nc1c(C)cccc1C` (stereo not shown) [Bupivacaine]?
inhibition at 10 µM [1, 6]: 12%; inhibition at 10 µM [2, 7]: 23%; Quadrant (FIG. 5b) ([3]; primary HTS, 10 μM): Q4; LPS % cell toxicity [4, 8]: 0%; Fibrin % cell toxicity [5, 9]: 1%

For `CCC(=O)OCC(=O)[C@@]1(OC(=O)CC)[C@H](C)C[C@H]2[C@H]3[C@H]([C@@H](O)C[C@@]21C)[C@@]1(C)C=CC(=O)C=C1C[C@H]3Cl` [Alclometazone dipropionate, reference compound], which “Fibrin Selectivity (LOG10)” value [1] is on record?
Its value is 3.33.

And the IC50 [1, 19]?
Its IC50 is under 0.001 µM.

What about the IC50 ([1]; Table 3, read-out: Fibrin IC50 (uM) (Suppl. Table 7)) of the same compound?
Its IC50 is under 0.001 µM.

What about the IC50 ([1]; Table 6, read-out: Fibrin IC50 (uM) (Suppl. Table 7)) of the same compound?
The IC50 was under 0.001 µM.

And the IC50 [1, 20]?
The IC50 was under 0.001 µM.

And the “Fibrin Selectivity (LOG10)” value ([1]; fibrin vs LPS, LOG10, Table 6)?
The value was 3.33.

And the “Fibrin Selectivity” value ([1]; fibrin vs LPS, Table 6)?
Its value is 2153.

What about the IC50 [1, 21] of the same compound?
The IC50 was under 0.001 µM.

And the “Fibrin Selectivity” value ([1]; listed as Alclometazone Dipropion)?
Its value is at least 2153.

And the “Fibrin Selectivity” value ([1]; listed as Alclometazone Dipropionate)?
The value was 2153.

What about the Fibrin % inhibition [1, 10] of the same compound?
The Fibrin % inhibition was 105%.

And the IC50 [2, 22]?
Its IC50 is 2 µM.

And the IC50 [2, 23]?
The IC50 was 2 µM.

And the IC50 ([2]; Table 3, read-out: LPS IC50 (uM) (Suppl. Table 7))?
Its IC50 is 2 µM.

What about the IC50 ([2]; Table 6, read-out: LPS IC50 (uM) (Suppl. Table 7)) of the same compound?
Its IC50 is 2 µM.

What about the IC50 [2, 24] of the same compound?
Its IC50 is 2 µM.

And the LPS % inhibition [2, 25]?
Its LPS % inhibition is 82%.

What about the Hit [3] of the same compound?
Its Hit is “HIT (Hits were defined as molecules that exhibited greater than 50% inhibition of either fibrin or LPS activation)”.

And the “Quadrant (FIG. 5b)” value [3, 16]?
Its value is “Q2”.

What about the “Quadrant (FIG. 5b)” value ([3]; Table 1, screen at 10 μM) of the same compound?
The value was “Q2”.

What about the “Cherry-picked Hit (Suppl. Table 7)” value ([3]; Table 3) of the same compound?
Its value is “HIT (Hits were defined as molecules that exhibited greater than 50% inhibition of either fibrin or LPS activation)”.

And the “Quadrant (FIG. 5b)” value ([3]; Table 3, screen at 10 μM)?
The value was “Q2”.

And the “Cherry-picked Hit (Suppl. Table 7)” value [3, 26]?
The value was “HIT (Hits were defined as molecules that exhibited greater than 50% inhibition of either fibrin or LPS activation)”.

And the “Cherry-picked Hit (Suppl. Table 7)” value ([3]; microglia HTS, Table 6)?
The value was “HIT (Hits were defined as molecules that exhibited greater than 50% inhibition of either fibrin or LPS activation)”.

And the “Quadrant (FIG. 5b)” value ([3]; microglia HTS, Table 6)?
Its value is “Q2”.

And the “Quadrant (FIG. 5b)” value [3, 11]?
Its value is “Q2”.

And the “LPS % cell toxicity” value [4, 12]?
The value was 2%.

What about the IC50 ([4]; LPS assay) of the same compound?
The IC50 was over 20 µM.

And the IC50 ([4]; LPS assay, Table 6)?
Its IC50 is over 20 µM.

What about the IC50 ([4]; Table 3) of the same compound?
Its IC50 is over 20 µM.

And the “Fibrin % cell toxicity” value [5, 13]?
Its value is 2%.

What about the IC50 ([5]; Table 3) of the same compound?
The IC50 was over 20 µM.

What about the IC50 ([5]; cFib assay) of the same compound?
Its IC50 is over 20 µM.

What about the IC50 ([5]; cFib assay, Table 6) of the same compound?
Its IC50 is over 20 µM.
